Patent publication US20240400584A1, “COMPOUNDS AND METHODS FOR MODULATING SPLICING” (REMIX THERAPEUTICS INC., priority 2021, published 2024)

How the values were obtained:
HTT [1] = assay: RT-qPCR splicing assay, HTT AJ/CJ mRNA; assay type: cell-based, human; settings: Homo sapiens, 24 h, A673 or K562 cells; for IC50: decrease in canonical junction mRNA; for AC50: increase in alternative junction mRNA
How it was run: (§1)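 Following 24 h compound exposure at 37 °C (11 points, 3-fold, highest 10 uM; DMSO ≤0.25%), A673 or K562 lysates underwent RT-qPCR for exon-inclusion (AJ) and canonical (CJ) junctions of HTT and MYB. Relative quantification used housekeeping-gene ΔCt and DMSO-normalized ΔΔCt, converted to percentage response.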

SMN2 = assay: Gene panel canonical junction qPCR assay, SMN2 CJ mRNA (Table 7); assay type: cell-based; settings: Homo sapiens, read-out: SMN2 CJ mRNA decrease IC50
How it was run: (§2)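 IC50 values reflect compound concentration giving 50% reduction in canonical exon–exon junction mRNA. Cell lysates from A673 or K562 treatments were reverse-transcribed and probed by junction-spanning qPCR, normalized to a housekeeper and vehicle, then fitted to a 4-parameter logistic equation.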

Target C = assay: Gene panel canonical junction qPCR assay, Target C CJ mRNA (Table 7); assay type: cell-based, human; settings: Homo sapiens, read-out: Target C CJ mRNA decrease IC50
How it was run: as §2

MYB [2] = assay: Gene panel canonical junction qPCR assay, MYB CJ mRNA (Table 7); assay type: cell-based; settings: Homo sapiens, read-out: MYB CJ mRNA decrease IC50
How it was run: as §2

HTT [3] = assay: Gene panel canonical junction qPCR assay, HTT CJ mRNA (Table 7); assay type: cell-based, human; settings: Homo sapiens, read-out: HTT CJ mRNA decrease IC50
How it was run: as §2

MYB [4] = assay: RT-qPCR splicing assay, MYB AJ/CJ mRNA; assay type: cell-based; settings: Homo sapiens, A673 or K562 cells, 24 hours; for IC50: decrease in canonical junction mRNA; for AC50: increase in alternative junction mRNA
How it was run: as §1

IC50 (HTT [1]) [nM] | IC50 (SMN2) [nM] | IC50 (Target C) [nM] | IC50 (MYB [2]) [nM] | IC50 (HTT [3]) [nM] | IC50 (MYB [4]) [nM] | Structure (SMILES) | AC50 (HTT [1]) [nM] | AC50 (MYB [4]) [nM]
100 to 1000 | 100 to 1000 | 1000 to 10000 | 100 to 1000 | 100 to 1000 | 100 to 1000 | CN1CCC12CCN(c1ccc3c(n1)OCc1cc(-c4cn[nH]c4)ccc1-3)C2 (stereo not drawn) [Compound 220, 3-(1-methyl-1,6-diazaspiro[3.4]octan-6-yl)-8-(1H-pyrazol-4-yl)-6H-isochromeno[3,4-b]pyridine] | 100 to 1000 | 100 to 1000
100 to 1000 | < 100 | 100 to 1000 | 100 to 1000 | 100 to 1000 | 100 to 1000 | COc1cc(-c2ccc3c(c2)COc2nc(N4CCN[C@@H](C5CC5)C4)ccc2-3)cnn1 [Compound 296] | 100 to 1000 | 100 to 1000
100 to 1000 | 100 to 1000 | 1000 to 10000 | 1000 to 10000 | 100 to 1000 | 1000 to 10000 | CCN(CC)C1CCN(c2ccc3c(n2)OCc2cc(-c4cnnc(OC)c4)ccc2-3)C1 (stereo not drawn) [Compound 321] | 100 to 1000 | 1000 to 10000
< 100 | < 100 | 100 to 1000 | 100 to 1000 | < 100 | 100 to 1000 | COc1cc(-c2ccc3c(c2)COc2nc(N4CCN[C@@H](C(C)C)C4)ccc2-3)cnn1 [Compound 303] | 100 to 1000 | 100 to 1000
100 to 1000 | 100 to 1000 | 100 to 1000 | 100 to 1000 | 100 to 1000 | 100 to 1000 | COc1cc(-c2cc3c(cc2F)-c2ccc(OC4CC(C)(C)NC(C)(C)C4)nc2OC3)cnn1 [Compound 244] | < 100 | 100 to 1000
< 100 | < 100 | 100 to 1000 | 100 to 1000 | < 100 | 100 to 1000 | COc1cc(-c2ccc3c(c2)COc2nc(OC4CC(C)(C)NC(C)(C)C4)ccc2-3)cnn1 [Compound 226, 3-methoxy-5-{3-[(2,2,6,6-tetramethylpiperidin-4-yl)oxy]-6H-isochromeno[3,4-b]pyridin-8-yl}pyridazine] | < 100 | > 10000
100 to 1000 | 100 to 1000 | 1000 to 10000 | 1000 to 10000 | 100 to 1000 | 1000 to 10000 | COc1cc(-c2ccc3c(c2)COc2nc(N4CCC(NC5CC5)C4)ccc2-3)cnn1 (stereo not drawn) [Compound 255, N-cyclopropyl-1-[8-(6-methoxypyridazin-4-yl)-6H-isochromeno[3,4-b]pyridin-3-yl]pyrrolidin-3-amine] | 1000 to 10000 | 1000 to 10000
> 10000 | 1000 to 10000 | > 10000 | > 10000 | > 10000 | > 10000 | c1cnn(-c2ccc3c(c2)COc2nc(N4CCNCC4)ccc2-3)c1 [Compound 173] | > 10000 | > 10000
1000 to 10000 | 100 to 1000 | 1000 to 10000 | > 10000 | 1000 to 10000 | > 10000 | COc1cc(-c2ccc3c(c2)COc2nc(N4CCC(N(C)C5CC5)C4)ccc2-3)cnn1 (stereo not drawn) [Compound 320] | 1000 to 10000 | 1000 to 10000
> 10000 | > 10000 | > 10000 | > 10000 | > 10000 | > 10000 | Cc1cc(-c2ccc3c(c2)COc2nc(N4CC[C@H](NC(C)(C)C)C4)ccc2-3)cnn1 (single isomer, unassigned) [Compound 273, N-tert-butyl-1-[8-(6-methylpyridazin-4-yl)-6H-isochromeno[3,4-b]379yrrolid-3-yl]379yrrolidine-3-amine] | > 10000 | > 10000
< 100 | < 100 | 100 to 1000 | 100 to 1000 | < 100 | 100 to 1000 | COc1cc(-c2ccc3c(c2)COc2nc(N4CC[C@H](N(C)C(C)(C)C)C4)ccc2-3)cnn1 [Compound 270, (3S)—N-tert-butyl-1-[8-(6-methoxypyridazin-4-yl)-6H-isochromeno[3,4-b]pyridin-3-yl]-N-methylpyrrolidin-3-amine] | < 100 | 100 to 1000
> 10000 | > 10000 | > 10000 | > 10000 | > 10000 | > 10000 | c1cnn(-c2ccc3c(c2)COc2nc(N4CC5(CCNCC5)C4)ccc2-3)c1 [Compound 167] | > 10000 | > 10000
1000 to 10000 | 100 to 1000 | > 10000 | 1000 to 10000 | 1000 to 10000 | 1000 to 10000 | CC1(C)CC(Oc2ccc3c(n2)OCc2cc(-n4cccn4)ccc2-3)CCN1 (stereo not drawn) [Compound 186] | 1000 to 10000 | > 10000

Structure (SMILES) | IC50 (HTT [1]) [nM] | IC50 (SMN2) [nM] | IC50 (Target C) [nM] | IC50 (MYB [2]) [nM] | IC50 (HTT [3]) [nM] | IC50 (MYB [4]) [nM] | AC50 (HTT [1]) [nM] | AC50 (MYB [4]) [nM]
COc1cc(-c2ccc3c(c2)COc2nc(O[C@@H]4C[C@H]5CC[C@@H](C4)N5)ccc2-3)cnn1 [Compound 223, (1R,3R,5S)-3-{[8-(6-methoxypyridazin-4-yl)-6H-isochromeno[3,4-b]pyridin-3-yl]oxy}-8-azabicyclo[3.2.1]octane] | < 100 | < 100 | < 100 | 100 to 1000 | < 100 | 100 to 1000 | < 100 | < 100
COc1cc(-c2ccc3c(c2)COc2nc(N(C)[C@H]4C[C@H]5COC[C@@H](C4)N5)ccc2-3)cnn1 [Compound 246] | > 10000 | 1000 to 10000 | > 10000 | > 10000 | > 10000 | > 10000 | > 10000 | 1000 to 10000
FC1(F)CC2CC(Nc3ccc4c(n3)OCc3cc(-c5cn[nH]c5)ccc3-4)CC1N2 (stereo not drawn) [Compound 241, 6,6-difluoro-N-[8-(1H-pyrazol-4-yl)-6H-isochromeno[3,4-b]pyridin-3-yl]-8-azabicyclo[3.2.1]octan-3-amine] | 1000 to 10000 | 1000 to 10000 | 1000 to 10000 | 1000 to 10000 | 1000 to 10000 | 1000 to 10000 | 1000 to 10000 | 1000 to 10000
c1cnn(-c2ccc3c(c2)COc2nc(N[C@@H]4C[C@H]5CCC[C@@H](C4)N5)ccc2-3)c1 [Compound 190] | < 100 | < 100 | 100 to 1000 | 100 to 1000 | < 100 | 100 to 1000 | 100 to 1000 | 100 to 1000
c1cnn(-c2ccc3c(c2)OCCc2nc(N[C@@H]4C[C@H]5CC[C@@H](C4)N5)ccc2-3)c1 [Compound 136] | > 10000 | > 10000 | > 10000 | > 10000 | > 10000 | > 10000 | > 10000 | > 10000
[2H]C([2H])([2H])N(c1ccc2c(n1)OCc1cc(-n3cccn3)ccc1-2)[C@@H]1C[C@H]2CC[C@@H](C1)N2 [Compound 201] | 100 to 1000 | < 100 | 100 to 1000 | 100 to 1000 | 100 to 1000 | 100 to 1000 | 100 to 1000 | 1000 to 10000
COc1cc(-c2ccc3c(c2)COc2nc(N(C)[C@@H]4C[C@H]5CC[C@@H](C4)N5)ncc2-3)cnn1 [Compound 295] | < 100 | < 100 | 100 to 1000 | 100 to 1000 | < 100 | 100 to 1000 | < 100 | 1000 to 10000
CN(c1ccc2c(n1)OCc1cc(-c3cn[nH]c3)ccc1-2)C1CC2CC(F)(F)C(C1)N2 (stereo not drawn) [Compound 248, 6,6-difluoro-N-methyl-N-[8-(1H-pyrazol-4-yl)-6H-isochromeno[3,4-b]pyridin-3-yl]-8-azabicyclo[3.2.1]octan-3-amine] | 100 to 1000 | 100 to 1000 | 1000 to 10000 | 1000 to 10000 | 100 to 1000 | 1000 to 10000 | 100 to 1000 | 1000 to 10000
COc1cc(-c2ccc3c(c2)COc2nc(N(C)C4CC(C)(C)NC(C)(C)C4)ncc2-3)cnn1 [Compound 276, N-[8-(6-methoxypyridazin-4-yl)-6H-isochromeno[3,4-d]pyrimidin-3-yl]-N,2,2,6,6-pentamethylpiperidin-4-amine] | 100 to 1000 | 100 to 1000 | 100 to 1000 | 1000 to 10000 | 100 to 1000 | 1000 to 10000 | 100 to 1000 | 1000 to 10000
[2H]C([2H])([2H])N(c1ccc2c(n1)OCc1cc(-n3cccn3)ccc1-2)C1CCNCC1 [Compound 176] | 1000 to 10000 | 1000 to 10000 | > 10000 | > 10000 | 1000 to 10000 | > 10000 | 1000 to 10000 | > 10000
Fc1ccn(-c2ccc3c(c2)COc2nc(O[C@@H]4C[C@H]5CC[C@@H](C4)N5)ccc2-3)n1 [Compound 230, (1R,3R,5S)-3-{[8-(3-fluoropyrazol-1-yl)-6H-isochromeno[3,4-b]pyridin-3-yl]oxy}-8-azabicyclo[3.2.1]octane] | 100 to 1000 | 100 to 1000 | 1000 to 10000 | 100 to 1000 | 100 to 1000 | 100 to 1000 | 100 to 1000 | 1000 to 10000
